Reference: ChEMBL document CHEMBL4371024, “Synthesis and characterization of pyridoxine, nicotine and nicotinamide salts of dithiophosphoric acids as antibacterial agents against resistant wound infection” (Bioorg Med Chem, 2019)
≈ marks a conversion by molar mass, not a printed value.

How the values were obtained:
[1] = tested on: Staphylococcus aureus; test: Antibacterial activity against Staphylococcus aureus ATCC 29213 after 24 hrs by broth dilution method; assay type: functional; conditions: ATCC 29213, 24 h
[2] = tested on: Pseudomonas aeruginosa; test: Antibacterial activity against Pseudomonas aeruginosa ATCC 27853 after 24 hrs by broth dilution method; assay type: functional; conditions: ATCC 27853, 24 h
[3] = tested on: Staphylococcus epidermidis; test: Antibacterial activity against Staphylococcus epidermidis after 24 hrs by broth dilution method; assay type: functional
[4] = tested on: Klebsiella pneumoniae; test: Antibacterial activity against Klebsiella pneumoniae after 24 hrs by broth dilution method; assay type: functional
[5] = tested on: Pseudomonas aeruginosa; test: Bactericidal activity against Pseudomonas aeruginosa ATCC 27853 incubated for 24 hrs followed by replating on Mueller-Hinton agar and further incubated for 24 hrs; assay type: functional; conditions: ATCC 27853, 24 h
[6] = tested on: Klebsiella pneumoniae; test: Bactericidal activity against Klebsiella pneumoniae incubated for 24 hrs followed by replating on Mueller-Hinton agar and further incubated for 24 hrs; assay type: functional
[7] = tested on: Staphylococcus aureus; test: Bactericidal activity against Staphylococcus aureus ATCC 29213 incubated for 24 hrs followed by replating on Mueller-Hinton agar and further incubated for 24 hrs; assay type: functional; conditions: ATCC 29213, 24 h
[8] = tested on: Staphylococcus aureus; test: Antibacterial activity against methicillin, cefoxytin, levfloxacin-resistant and erythromycin, clindamycin-senstitive Staphylococcus aureus after 24 hrs by broth dilution method; assay type: functional
[9] = tested on: Staphylococcus aureus; test: Antibacterial activity against methicillin, cefoxytin-resistant and levofloxacin, erythromycin, clindamycin-senstitive Staphylococcus aureus after 24 hrs by broth dilution method; assay type: functional
[10] = tested on: Staphylococcus aureus; test: Antibacterial activity against multidrug-resistant Staphylococcus aureus after 24 hrs by broth dilution method; assay type: functional
[11] = tested on: Pseudomonas aeruginosa; test: Antibacterial activity against multidrug-resistant Pseudomonas aeruginosa after 24 hrs by broth dilution method; assay type: functional
[12] = tested on: Pseudomonas aeruginosa; test: Antibacterial activity against ciprofloxacin, imipenem, meronem-resistant and cefepime, piperacillin-tazobactam-sensitive Pseudomonas aeruginosa after 24 hrs by broth dilution method; assay type: functional
[13] = tested on: Pseudomonas aeruginosa; test: Antibacterial activity against ciprofloxacin-resistant and multidrug-sensitive Pseudomonas aeruginosa after 24 hrs by broth dilution method; assay type: functional
[14] = tested on: Pseudomonas aeruginosa; test: Antibacterial activity against multidrug-sensitive Pseudomonas aeruginosa after 24 hrs by broth dilution method; assay type: functional
[15] = tested on: Klebsiella pneumoniae; test: Antibacterial activity against multidrug-sensitive Klebsiella pneumoniae after 24 hrs by broth dilution method; assay type: functional
[16] = tested on: Enterobacter cloacae; test: Antibacterial activity against multidrug-resistant and sensitive Enterobacter cloacae after 24 hrs by broth dilution method; assay type: functional
[17] = tested on: Escherichia coli; test: Antibacterial activity against multidrug-resistant and sensitive Escherichia coli after 24 hrs by broth dilution method; assay type: functional
[18] = Cytotoxicity against human HSF cells after 72 hrs by MTT assay; assay type: cell-based
[19] = Cytotoxicity against human HSF cells after 24 hrs by MTT assay; assay type: cell-based
[20] = tested on: Erythrocyte; test: Hemolytic activity in human erythrocytes at >100 uM; assay type: ADME, cell-based
[21] = Aggregation property of the compound in DMEM culture medium at 1 mM after 1 hr by dynamic light scattering method; assay type: physicochemical; conditions: 1000 µM
[22] = tested on: Staphylococcus aureus; test: Drug interaction with Staphylococcus aureus cellular surface assessed as decrease in zeta potential at 1 mM treated for 1 hr followed by washing and measured by dynamic light scattering method; assay type: functional
[23] = tested on: Pseudomonas aeruginosa; test: Drug interaction with Pseudomonas aeruginosa cellular surface assessed as decrease in zeta potential at 1 mM treated for 1 hr followed by washing and measured by dynamic light scattering method; assay type: functional
[24] = tested on: Klebsiella pneumoniae; test: Ratio of MBC to MIC against Klebsiella pneumoniae; assay type: functional
[25] = tested on: Pseudomonas aeruginosa; test: Ratio of MBC to MIC against Pseudomonas aeruginosa ATCC 27853; assay type: functional
[26] = tested on: Staphylococcus aureus; test: Ratio of MBC to MIC against Staphylococcus aureus ATCC 29213; assay type: functional
[27] = Aggregation property of the compound assessed as mean hydrodynamic diameter at 1 mM after 1 hr by dynamic light scattering method; assay type: physicochemical; conditions: 1000 µM
[28] = tested on: Erythrocyte; test: Hemolytic activity in human erythrocytes at 1 mM; assay type: ADME, cell-based; conditions: 1000 µM

In the case of `CC1(C)[C@H]2CC[C@]1(C)[C@H](OP(=S)(S)O[C@@H]1C[C@@H]3CC[C@@]1(C)C3(C)C)C2`, the MIC [1] is reported as 6210 µM (≈ 2500 µg/mL), the MIC [2] is reported as 6210 µM (≈ 2500 µg/mL) and the MIC [3] is reported as 6210 µM (≈ 2500 µg/mL). The MIC [4] was 6210 µM (≈ 2500 µg/mL).

Compound `CC1(C)[C@H]2CC[C@](C)(C2)[C@H]1OP(=S)(S)O[C@H]1C(C)(C)[C@H]2CC[C@]1(C)C2` has an MIC [1] of 240 µM (≈ 96.6 µg/mL), an MIC [2] of 1940 µM (≈ 781 µg/mL) and an MIC [3] of 240 µM (≈ 96.6 µg/mL). The MIC [4] was 1940 µM (≈ 781 µg/mL).

In the case of `Cc1ccc(C(C)C)c(OP(=S)(S)Oc2cc(C)ccc2C(C)C)c1`, the MIC [1] is reported as 3800 µM (≈ 1500 µg/mL), the MIC [2] is reported as 3800 µM (≈ 1500 µg/mL) and the MIC [3] is reported as 3800 µM (≈ 1500 µg/mL). For the same compound, the MIC [4] was 3800 µM (≈ 1500 µg/mL).

In the case of `CC(C)[C@H]1CC[C@H](C)C[C@@H]1OP(=S)(S)O[C@H]1C[C@@H](C)CC[C@@H]1C(C)C.CN1CCC[C@H]1c1cccnc1`, the MIC [1] is reported as 20 µM, the MIC [2] is reported as 320 µM and the MIC [3] is reported as 20 µM. For the same compound, the MIC [4] was 320 µM.

In the case of `C[C@@H]1[C@@H](OP(=S)(S)O[C@H]2C[C@H]3C[C@@H]([C@@H]2C)C3(C)C)C[C@H]2C[C@@H]1C2(C)C`, the MIC [1] is reported as 390 µM (≈ 157 µg/mL), the MIC [2] is reported as 1560 µM (≈ 628 µg/mL) and the MIC [3] is reported as 190 µM (≈ 76.5 µg/mL). The MIC [4] was 3110 µM (≈ 1250 µg/mL).

`CC(C)[C@@H]1CC[C@@H](C)C[C@H]1OP(=S)(S)O[C@@H]1C[C@H](C)CC[C@H]1C(C)C.Cc1ncc(CO)c(CO)c1O` showed an MIC [1] of 20 µM, an MIC [2] of 320 µM and an MIC [3] of 10 µM. For the same compound, the MIC [4] was 320 µM, the MBC [5] was 320 µM and the MBC [6] was 640 µM. For the same compound, the MBC [7] was 40 µM, the MIC [8] was 20 µM and the MIC [9] was 20 µM. For the same compound, the MIC [10] was 20 µM, the MIC [11] was 323 µM and the MIC [12] was 323 µM. The MIC [13] was 323 µM, the MIC [14] was 323 to 647 µM and the MIC [15] was 323 µM. The MIC [16] was 323 µM, the MIC [17] was 323 µM and the IC50 [18] was 48.6 µM. For the same compound, the IC50 [19] was 92.2 µM, the Activity [20] was “Toxic” and the Activity [21] was “Active”. For the same compound, the “fold change (FC)” value [22] was 1.2, the “fold change (FC)” value [23] was 1.2 and the Ratio [24] was 2. For the same compound, the Ratio [25] was 2, the Ratio [26] was 2 and the Activity [27] was 108.9 nm.

With `C[C@@H]1[C@@H](OP(=S)(S)O[C@H]2C[C@H]3C[C@@H]([C@@H]2C)C3(C)C)C[C@H]2C[C@@H]1C2(C)C.NC(=O)c1cccnc1` the MIC [1] was 300 µM, the MIC [2] was 4780 µM and the MIC [3] was 300 µM. It also gave an MIC [4] of 4780 µM.

With `CN[C@H](CC(C)C)C(=O)N[C@H]1C(=O)N[C@@H](CC(N)=O)C(=O)N[C@H]2C(=O)N[C@H]3C(=O)N[C@H](C(=O)N[C@H](C(=O)O)c4cc(O)cc(O)c4-c4cc3ccc4O)[C@H](O)c3ccc(c(Cl)c3)Oc3cc2cc(c3O[C@@H]2O[C@H](CO)[C@@H](O)[C@H](O)[C@H]2O[C@H]2C[C@](C)(N)[C@H](O)[C@H](C)O2)Oc2ccc(cc2Cl)[C@H]1O` [VANCOMYCIN] the MIC [1] was 1.4 µM (≈ 2.03 µg/mL), the MIC [2] was > 5000 µM and the MIC [3] was 0.7 µM (≈ 1.01 µg/mL). The MIC [4] was > 5000 µM.

With `CC(C)[C@@H]1CC[C@@H](C)C[C@H]1OP(=S)(S)O[C@@H]1C[C@H](C)CC[C@H]1C(C)C` the MIC [1] was 190 µM (≈ 77.3 µg/mL), the MIC [2] was 380 µM (≈ 155 µg/mL) and the MIC [3] was 380 µM (≈ 155 µg/mL). For the same compound, the MIC [4] was 1540 µM (≈ 626 µg/mL) and the Activity [28] was “Toxic”.

For `CC(C)[C@H]1CC[C@H](C)C[C@@H]1OP(=S)(S)O[C@H]1C[C@@H](C)CC[C@@H]1C(C)C.Cc1ncc(CO)c(CO)c1O`, the MIC [1] was 40 µM, the MIC [2] was 320 µM and the MIC [3] was 10 µM. For the same compound, the MIC [4] was 320 µM.

With `Cc1ccc(C(C)C)c(OP(=S)(S)Oc2cc(C)ccc2C(C)C)c1.NC(=O)c1cccnc1` the MIC [1] was 380 µM, the MIC [2] was 380 µM and the MIC [3] was 380 µM. For the same compound, the MIC [4] was 1500 µM.
